From article PMC9202514 (FASEB journal : official publication of the Federation of …, 2022)

Legend:
GmITPK1 = molecular target: T1, GmITPK1 (Glycine max, UniProt A7X657); assay: InsP6 kinase activity assay; assay type: biochemical; conditions: 1 mM ATP, pH 7.2, 25 °C
T1 sequence (A7X657 1-339): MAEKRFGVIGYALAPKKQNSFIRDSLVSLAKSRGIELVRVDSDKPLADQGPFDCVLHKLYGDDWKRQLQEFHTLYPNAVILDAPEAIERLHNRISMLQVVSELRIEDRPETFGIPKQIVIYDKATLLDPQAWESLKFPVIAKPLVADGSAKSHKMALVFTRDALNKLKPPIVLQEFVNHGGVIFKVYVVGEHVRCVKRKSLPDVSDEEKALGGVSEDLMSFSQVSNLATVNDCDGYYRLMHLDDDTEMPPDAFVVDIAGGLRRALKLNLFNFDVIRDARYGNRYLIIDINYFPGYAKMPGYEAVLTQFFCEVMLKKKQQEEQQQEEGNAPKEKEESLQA

GmITPK2 = molecular target: T2, GmITPK2 (Glycine max, UniProt A7X665); assay: Ins; assay type: biochemical; conditions: 1 mM ADP, pH 7.2, 25 °C
T2 sequence (A7X665 1-315): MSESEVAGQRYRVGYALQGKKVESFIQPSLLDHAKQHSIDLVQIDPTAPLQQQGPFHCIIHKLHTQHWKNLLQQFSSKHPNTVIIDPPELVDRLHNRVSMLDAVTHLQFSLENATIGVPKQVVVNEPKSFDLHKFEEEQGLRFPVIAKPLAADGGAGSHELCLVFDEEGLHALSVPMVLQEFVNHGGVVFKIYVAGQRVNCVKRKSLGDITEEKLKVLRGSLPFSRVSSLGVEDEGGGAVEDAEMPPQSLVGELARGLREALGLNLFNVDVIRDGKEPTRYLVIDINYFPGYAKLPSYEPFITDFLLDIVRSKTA

Row | Ins(1,3,4,5,6)P5 phosphatase activity assay (GmITPK2) | SMILES | InsP6 kinase activity assay (GmITPK1)
1 | – | O=P(O)(O)O[C@H]1[C@H](OP(=O)(O)O)[C@@H](OP(=O)(O)O)[C@H](OP(=O)(O)O)[C@@H](OP(=O)(O)O)[C@H]1OP(=O)(O)O [InsP6] | recombinant His6MBP-GmITPK1 is an active InsP6 kinase
2 | GmITPK2 exhibited the higher activity | O=P(O)(O)O[C@@H]1[C@@H](OP(=O)(O)O)[C@H](OP(=O)(O)O)[C@H](O)[C@H](OP(=O)(O)O)[C@H]1OP(=O)(O)O [Ins(1,3,4,5,6)P5] | –
